These results are taken from US9795609B2, “Pharmaceutical composition of 1-adamantylethyloxy-3-morpholino-2-propanol or pharmaceutically acceptable salts thereof for the treatment of cardiovascular disease” (priority 2012, dated 2017).

What all share (assay type): in vivo
Data set [1] concerns rats with acute adrenal cardiomyopathy. The data set is described as follows: Acute adrenal cardiomyopathy simulation in rats, preventive single administration. Conditions: single doses of 15, 30, 50 and 100 mg/kg one hour before simulation. The text has this:
This allows to use it for treatment of various forms of ischemic heart disease, including unstable angina pectoris, stable rest and exertional angina pectoris, angina pectoris of intact vessels, acute coronary syndrome (including early postinfarction angina pectoris), myocardial infarction (large-focus and small-focus, repeated and recurrent) post resuscitation disease (state after emergency procedures), and cardiomyopathies of various genesis (alcoholic, infectious-toxic, and metabolic).

The subject of data set [2] is rats with small-focus myocardial infarction. Kind of data set: Experimental therapy of rats with small-focus myocardial infarction. From the text:
The ability of the pharmaceutical composition for parenteral use comprising the active substance 1-adamantylethyloxy-3-morpholino-2-propanol or pharmaceutically acceptable salts thereof allows its use for treatment of cardiomyopathies of various geneses (alcoholic, infectious, toxic, and metabolic).
This allows to use it for treatment of various forms of coronary artery disease, including unstable angina pectoris, stable rest and exertional angina pectoris, angina pectoris of intact vessels, acute coronary syndrome (including early postinfarction angina pectoris), myocardial infarction (large-focus and small-focus, repeated and recurrent) post resuscitation disease (state after emergency procedures), treatment and prevention of ischemic myocardial postreperfusion injuries after thrombolysis, stenting, balloon angioplasty, coronary vessels atheroctomy, postinfarction myocardiosclerosis, cardiomyopathies of various genesis (alcoholic, infectious-toxic, and metabolic), heart rhythm disorders, diabetic angiopathies and complications thereof.

The next data set concerns cats. The data set is described as follows: Coronary blood flow and haemodynamics in cats after intravenous administration. The conditions noted are these: 3, 5, and 10 mg/kg intravenously. The text has this:
The ability of the pharmaceutical composition for parenteral use comprising the active substance 1-adamantylethyloxy-3-morpholino-2-propanol or pharmaceutically acceptable salts thereof to improve myocardial perfusion indicates to appropriateness of its use in acute coronary syndrome.

Setting [3] is: 10 mg/kg once a day for 96 hours of ischemia.

The structures appear in SMILES notation.

Consider `OC(COCCC12CC3CC(CC(C3)C1)C2)CN1CCOCC1` (stereo not shown) [1-adamantylethyloxy-3-morpholino-2-propanol], for which the mortality entry in data set [1] is on record as “promoted the reducing mortality in rats”. The “bcl-2 antiapoptotic protein expression” value in data set [2] (10 mg/kg once a day for 96 hours) is reported as “promoted the increasing of bcl-2 antiapoptotic protein expression”. Further, in data set [2] (setting [3]), the “RNA content and transcriptional activity of cardiomyocytes” value is “increasing of RNA content and transcriptional activity”; the “c-fos protein content in cardiomyocytes” value is given as “promoted the increasing of c-fos protein content in cardiomyocytes”; the cardiomyocytes nuclei density result is “retention of cardiomyocytes nuclei density”; the “percentage of necrotic cardiomyocytes” value was “the percentage of necrotic cardiomyocytes is reduced”. Also, in data set [2] (3, 10, 20, 50 and 100 mg/kg once a day for 96 hours of ischemia), the “manifestations of endothelial dysfunction and nitrosating stress” value is “promoted to reduce manifestations of endothelial dysfunction and nitrosating stress”. Moreover, in the data set with cats, the coronary blood flow result was “stimulates coronary blood flow”; the hypotension entry is “not accompanied by hypotension”; the “peripheral vasodilatation, venous inflow and cardiac output” value was “not associated with peripheral vasodilatation, decreased of venous inflow and cardiac output”.
